Data reported in PubChem BioAssay AID1845206 (Molecular Pharmacology Branch, DTP, NCI, 2023).
pIC50: −log10 of the molar value.

Test system: NCI-H1618 multicellular tumor spheroid viability
Experiment: Anticancer human tumor NCI-H1618 cell line growth inhibition;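 note: spheroids exposed to agents for 7 days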
Conditions: for pIC50: curve of first compound; for viability, T/C: stronger effect = lower value
In short: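 Complex tumor spheroids combined malignant cells with endothelial cells and mesenchymal stem cells. DNA-damaging drugs and DNA repair inhibitors were tested alone and in combination, at half-log dilutions down from clinical Cmax (top 10 microM if Cmax unknown), 0.25% DMSO final.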

[1] = second compound 30 pM, first compound 0.0316 µM
[2] = second compound 30 pM, first compound 0.1 µM
[3] = second compound 30 pM, first compound 0.316 µM
[4] = second compound 30 pM, first compound 1 µM
[5] = second compound 30 pM, first compound 3.16 µM
[6] = second compound 30 pM, first compound 10 µM
[7] = second compound 94.9 pM, first compound 0.0316 µM
[8] = second compound 94.9 pM, first compound 0.1 µM
[9] = second compound 94.9 pM, first compound 0.316 µM
[10] = second compound 94.9 pM, first compound 1 µM
[11] = second compound 94.9 pM, first compound 3.16 µM
[12] = second compound 94.9 pM, first compound 10 µM
[13] = second compound 0.0003 µM, first compound 0.0316 µM
[14] = second compound 0.0003 µM, first compound 0.1 µM
[15] = second compound 0.0003 µM, first compound 0.316 µM
[16] = second compound 0.0003 µM, first compound 1 µM
[17] = second compound 0.0003 µM, first compound 3.16 µM
[18] = second compound 0.0003 µM, first compound 10 µM
[19] = second compound 0.000949 µM, first compound 0.0316 µM
[20] = second compound 0.000949 µM, first compound 0.1 µM
[21] = second compound 0.000949 µM, first compound 0.316 µM
[22] = second compound 0.000949 µM, first compound 1 µM
[23] = second compound 0.000949 µM, first compound 3.16 µM
[24] = second compound 0.000949 µM, first compound 10 µM
[25] = second compound 0.003 µM, first compound 0.0316 µM
[26] = second compound 0.003 µM, first compound 0.1 µM
[27] = second compound 0.003 µM, first compound 0.316 µM
[28] = second compound 0.003 µM, first compound 1 µM
[29] = second compound 0.003 µM, first compound 3.16 µM
[30] = second compound 0.003 µM, first compound 10 µM

Q: What does the source list for `Cn1ncnc1[C@H]1c2n[nH]c(=O)c3cc(F)cc(c23)N[C@@H]1c1ccc(F)cc1` + Cn1nnc2c(C(N)=O)ncn2c1=O?
A: pIC50 (second compound 1 µM): 8.01; pIC50 (second compound 3.16 µM): > 8.02; pIC50 (second compound 10 µM): > 8.02; pIC50 (second compound 31.6 µM): > 8.02; pIC50 (second compound 100 µM): > 8.02; viability, T/C (second compound 1 µM, first compound 0.00949 µM): 50.5%; viability, T/C (second compound 1 µM, first compound 0.03 µM): 26.7%; viability, T/C (second compound 1 µM, first compound 0.0949 µM): 4.42%; viability, T/C (second compound 1 µM, first compound 0.3 µM): 1.85%; viability, T/C (second compound 1 µM, first compound 0.949 µM): 2.02%; viability, T/C (second compound 1 µM, first compound 3 µM): 2.04%; viability, T/C (second compound 3.16 µM, first compound 0.00949 µM): 3.96%; viability, T/C (second compound 3.16 µM, first compound 0.03 µM): 22.4%; viability, T/C (second compound 3.16 µM, first compound 0.0949 µM): 21.4%; viability, T/C (second compound 3.16 µM, first compound 0.3 µM): 1.75%; viability, T/C (second compound 3.16 µM, first compound 0.949 µM): 1.84%; viability, T/C (second compound 3.16 µM, first compound 3 µM): 19.8%; viability, T/C (second compound 10 µM, first compound 0.00949 µM): 19.2%; viability, T/C (second compound 10 µM, first compound 0.03 µM): 1.53%; viability, T/C (second compound 10 µM, first compound 0.0949 µM): 2.45%; viability, T/C (second compound 10 µM, first compound 0.3 µM): 2.8%; viability, T/C (second compound 10 µM, first compound 0.949 µM): 18.3%; viability, T/C (second compound 10 µM, first compound 3 µM): 1.95%; viability, T/C (second compound 31.6 µM, first compound 0.00949 µM): 1.95%; viability, T/C (second compound 31.6 µM, first compound 0.03 µM): 1.94%; viability, T/C (second compound 31.6 µM, first compound 0.0949 µM): 3.12%; viability, T/C (second compound 31.6 µM, first compound 0.3 µM): 1.9%; viability, T/C (second compound 31.6 µM, first compound 0.949 µM): 1.85%; viability, T/C (second compound 31.6 µM, first compound 3 µM): 2.06%; viability, T/C (second compound 100 µM, first compound 0.00949 µM): 1.84%; viability, T/C (second compound 100 µM, first compound 0.03 µM): 2.1%; viability, T/C (second compound 100 µM, first compound 0.0949 µM): 2.47%; viability, T/C (second compound 100 µM, first compound 0.3 µM): 2.51%; viability, T/C (second compound 100 µM, first compound 0.949 µM): 18.2%; viability, T/C (second compound 100 µM, first compound 3 µM): 2.29%

Q: What does the source list for `Cc1cc(C)c(CNC(=O)c2cc(-c3ccc(CN4CCOCC4)cc3)cc3c2cnn3C2CCCC2)c(=O)[nH]1` + COc1cc2c(cc1O)CCNC21CSC2c3c(OC(C)=O)c(C)c4c(c3C(COC1=O)N1C(O)C3Cc5cc(C)c(OC)c(O)c5C(C21)N3C)OCO4?
A: pIC50 (second compound 30 pM): < 5.00; pIC50 (second compound 94.9 pM): 5.75; pIC50 (second compound 0.0003 µM): > 7.50; pIC50 (second compound 0.000949 µM): > 7.50; pIC50 (second compound 0.003 µM): > 7.50; viability, T/C [1]: 92.5%; viability, T/C [2]: 86.8%; viability, T/C [3]: 89.7%; viability, T/C [4]: 72.7%; viability, T/C [5]: 88%; viability, T/C [6]: 58.6%; viability, T/C [7]: 46.9%; viability, T/C [8]: 66.5%; viability, T/C [9]: 66.9%; viability, T/C [10]: 55%; viability, T/C [11]: 45.7%; viability, T/C [12]: 44.2%; viability, T/C [13]: 2.47%; viability, T/C [14]: 10.3%; viability, T/C [15]: 4.67%; viability, T/C [16]: 5.71%; viability, T/C [17]: 2.43%; viability, T/C [18]: 2.6%; viability, T/C [19]: 4.74%; viability, T/C [20]: 7.05%; viability, T/C [21]: 2.83%; viability, T/C [22]: 3.43%; viability, T/C [23]: 3.12%; viability, T/C [24]: 2.59%; viability, T/C [25]: 2.14%; viability, T/C [26]: 3%; viability, T/C [27]: 3.25%; viability, T/C [28]: 4.16%; viability, T/C [29]: 3.95%; viability, T/C [30]: 1.24%

Q: Which results are given for `COc1ccc([C@@H](O)c2cc(-c3ncnc4cc(N5CCOCC5)ccc34)c(F)cc2Cl)nn1` + COc1cc2c(cc1O)CCNC21CSC2c3c(OC(C)=O)c(C)c4c(c3C(COC1=O)N1C(O)C3Cc5cc(C)c(OC)c(O)c5C(C21)N3C)OCO4?
A: pIC50 (second compound 30 pM): 5.43; pIC50 (second compound 94.9 pM): 5.84; pIC50 (second compound 0.0003 µM): > 7.50; pIC50 (second compound 0.000949 µM): > 7.50; pIC50 (second compound 0.003 µM): > 7.50; viability, T/C [1]: 94.5%; viability, T/C [2]: 103%; viability, T/C [3]: 104%; viability, T/C [4]: 97.6%; viability, T/C [5]: 55.8%; viability, T/C [6]: 15%; viability, T/C [7]: 75.4%; viability, T/C [8]: 82.7%; viability, T/C [9]: 55.5%; viability, T/C [10]: 65.7%; viability, T/C [11]: 32.6%; viability, T/C [12]: 3.93%; viability, T/C [13]: 14.8%; viability, T/C [14]: 29.8%; viability, T/C [15]: 13.9%; viability, T/C [16]: 3.02%; viability, T/C [17]: 3.64%; viability, T/C [18]: 0.49%; viability, T/C [19]: 4.34%; viability, T/C [20]: 4.36%; viability, T/C [21]: 3.33%; viability, T/C [22]: 3.78%; viability, T/C [23]: 5.45%; viability, T/C [24]: 0.45%; viability, T/C [25]: 2.98%; viability, T/C [26]: 4.77%; viability, T/C [27]: 4.99%; viability, T/C [28]: 3.43%; viability, T/C [29]: 2.67%; viability, T/C [30]: 1.04%

Q: How did the pIC50 (second compound 1 µM) turn out when `CC1COCCN1c1cc(-c2ccnn2C)c2ccnc(-c3ccn[nH]3)c2n1` (stereo not given) + Cn1nnc2c(C(N)=O)ncn2c1=O was run?
A: > 7.50

Q: What about the pIC50 (second compound 3.16 µM) of the same compound?
A: > 7.50

Q: And the pIC50 (second compound 10 µM)?
A: > 7.50

Q: And the pIC50 (second compound 31.6 µM)?
A: > 7.50

Q: And the pIC50 (second compound 100 µM)?
A: > 7.50

Q: What about the viability, T/C (second compound 1 µM, first compound 0.0316 µM) of the same compound?
A: 3.35%

Q: And the viability, T/C (second compound 1 µM, first compound 0.1 µM)?
A: 3.94%

Q: What about the viability, T/C (second compound 1 µM, first compound 0.316 µM) of the same compound?
A: 1.49%

Q: What about the viability, T/C (second compound 1 µM, first compound 1 µM) of the same compound?
A: 2.09%

Q: And the viability, T/C (second compound 1 µM, first compound 3.16 µM)?
A: 1.02%

Q: What about the viability, T/C (second compound 1 µM, first compound 10 µM) of the same compound?
A: 3.48%

Q: And the viability, T/C (second compound 3.16 µM, first compound 0.0316 µM)?
A: 10.3%

Q: What about the viability, T/C (second compound 3.16 µM, first compound 0.1 µM) of the same compound?
A: 1.64%

Q: What about the viability, T/C (second compound 3.16 µM, first compound 0.316 µM) of the same compound?
A: 1.41%

Q: What about the viability, T/C (second compound 3.16 µM, first compound 1 µM) of the same compound?
A: 1.67%

Q: What about the viability, T/C (second compound 3.16 µM, first compound 3.16 µM) of the same compound?
A: 1.26%

Q: And the viability, T/C (second compound 3.16 µM, first compound 10 µM)?
A: 2.12%

Q: And the viability, T/C (second compound 10 µM, first compound 0.0316 µM)?
A: 1.82%

Q: And the viability, T/C (second compound 10 µM, first compound 0.1 µM)?
A: 13.4%

Q: And the viability, T/C (second compound 10 µM, first compound 0.316 µM)?
A: 1.48%

Q: And the viability, T/C (second compound 10 µM, first compound 1 µM)?
A: 1.19%

Q: And the viability, T/C (second compound 10 µM, first compound 3.16 µM)?
A: 1.65%

Q: And the viability, T/C (second compound 10 µM, first compound 10 µM)?
A: 2.14%

Q: And the viability, T/C (second compound 31.6 µM, first compound 0.0316 µM)?
A: 1.23%

Q: What about the viability, T/C (second compound 31.6 µM, first compound 0.1 µM) of the same compound?
A: 1.26%

Q: And the viability, T/C (second compound 31.6 µM, first compound 0.316 µM)?
A: 1.34%

Q: What about the viability, T/C (second compound 31.6 µM, first compound 1 µM) of the same compound?
A: 1.03%

Q: What about the viability, T/C (second compound 31.6 µM, first compound 3.16 µM) of the same compound?
A: 1.36%

Q: And the viability, T/C (second compound 31.6 µM, first compound 10 µM)?
A: 1.55%

Q: What about the viability, T/C (second compound 100 µM, first compound 0.0316 µM) of the same compound?
A: 1.42%

Q: What about the viability, T/C (second compound 100 µM, first compound 0.1 µM) of the same compound?
A: 1.23%

Q: What about the viability, T/C (second compound 100 µM, first compound 0.316 µM) of the same compound?
A: 1.48%

Q: And the viability, T/C (second compound 100 µM, first compound 1 µM)?
A: 1.42%

Q: What about the viability, T/C (second compound 100 µM, first compound 3.16 µM) of the same compound?
A: 13.7%

Q: And the viability, T/C (second compound 100 µM, first compound 10 µM)?
A: 1.05%
